Results: patent US11492385B2, “Long-acting co-agonists of the glucagon and GLP-1 receptors” (Merck Sharp & Dohme Corp., priority 2015, dated 2022)
Starred links: 1 amine or outer side, 2 acyl side, 3 side chain; linkers in the order of their positions; H or OH if unused. Non-standard residues stand in square brackets, D forms with d. Residues, ends and D or L forms follow the SMILES beside them. Groups on a side chain read outwards from the residue. *: point of attachment. Phe(4-CH2NH2) = NCc1ccc(C[C@H](N)C(=O)O)cc1; C18 diacid = O=C(O)CCCCCCCCCCCCCCCCC(=O)*; C16 diacid = O=C(O)CCCCCCCCCCCCCCC(=O)*; γGlu = O=C(O)[C@H](CCC(=O)[*:2])N[*:1]; C14 diacid = O=C(O)CCCCCCCCCCCCC(=O)*; Met(O2) = CS(=O)(=O)CC[C@H](N)C(=O)O; αMeD = C[C@](N)(CC(=O)O)C(=O)O; αMeL = CC(C)C[C@](C)(N)C(=O)O; AEEA = NCCOCCOCC(=O)O; Aib = CC(C)(N)C(=O)O

Legend:
human GCGR = target: T1, human GCGR (Homo sapiens, UniProt P47871); assay: cAMP activity assay, cells expressing human GCGR; type: cell-based; details: for EC50: cAMP production, cells expressing human GCGR, assay buffer with or without 20% human serum (not stated which), read-out: GCGR EC50 human; for hGCGR/hGLP1R (hTone): ratio of human GCGR EC50 to human GLP1R EC50
T1 construct: expressed in transfected cells; kept under Blasticidin and Hygromycin selection
T1 sequence (P47871 26-477): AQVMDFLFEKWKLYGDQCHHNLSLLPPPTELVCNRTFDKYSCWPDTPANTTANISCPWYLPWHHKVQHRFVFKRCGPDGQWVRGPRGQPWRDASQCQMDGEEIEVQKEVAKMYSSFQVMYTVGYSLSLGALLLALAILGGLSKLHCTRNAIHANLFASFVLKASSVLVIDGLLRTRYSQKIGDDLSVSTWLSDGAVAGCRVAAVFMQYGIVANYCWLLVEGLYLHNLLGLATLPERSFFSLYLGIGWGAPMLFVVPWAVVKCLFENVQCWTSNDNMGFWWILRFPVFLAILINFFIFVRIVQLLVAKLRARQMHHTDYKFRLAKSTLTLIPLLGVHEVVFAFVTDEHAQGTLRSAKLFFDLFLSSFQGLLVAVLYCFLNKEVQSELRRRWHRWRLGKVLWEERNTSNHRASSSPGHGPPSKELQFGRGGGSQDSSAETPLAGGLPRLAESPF
Protocol: (§1) Activity of the peptides at the Glucagon receptor (GCGR) and GLP-1 receptor (GLP1R) was measured in a cAMP activity assay. Peptides were dissolved in 100% DMSO and serially diluted to generate 10 point titrations. The peptide solutions were then transferred into 384-well assay plates (150 nL/well). […] Production of cAMP was determined using […] kits (DiscoverX) following manufacturer protocol. The plates were incubated for overnight at room temperature in the dark. Luminescence was measured using an EnVision Multilabel plate reader (Perkin Elmer). Native GLP-1 and Glucagon (Bachem) are used as control peptides. EC50 values were calculated using uses a 4 parameter logistic fit based on the Levenberg-Marquardt algorithm.

human GLP1R = target: T2, human GLP1R (Homo sapiens, UniProt P43220); assay: cAMP activity assay, cells expressing human GLP1R; type: cell-based; details: cAMP production, assay buffer with or without 20% human serum (not stated which)
T2 construct: expressed in transfected cells; kept under Blasticidin and Hygromycin selection
T2 sequence (P43220 24-463): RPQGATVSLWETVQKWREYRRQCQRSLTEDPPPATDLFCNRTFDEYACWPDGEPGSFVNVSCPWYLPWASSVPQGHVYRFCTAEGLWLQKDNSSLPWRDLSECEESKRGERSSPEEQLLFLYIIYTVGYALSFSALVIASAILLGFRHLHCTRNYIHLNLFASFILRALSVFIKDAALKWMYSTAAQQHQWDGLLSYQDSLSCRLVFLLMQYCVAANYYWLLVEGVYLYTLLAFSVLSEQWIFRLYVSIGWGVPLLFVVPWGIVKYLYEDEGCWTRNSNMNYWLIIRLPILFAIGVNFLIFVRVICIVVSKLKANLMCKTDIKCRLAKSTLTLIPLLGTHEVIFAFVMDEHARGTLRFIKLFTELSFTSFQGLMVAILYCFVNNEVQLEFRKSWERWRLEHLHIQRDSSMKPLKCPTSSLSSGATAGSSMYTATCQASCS
Protocol: as §1

| Structure (SMILES) | EC50 (human GCGR) [nM] | hGCGR/hGLP1R (hTone) (human GCGR) | EC50 (human GLP1R) [nM] |
| --- | --- | --- | --- |
| CC(C)C[C@H](NC(=O)[C@H](Cc1ccc(O)cc1)NC(=O)[C@H](CCCCN)NC(=O)[C@H](CO)NC(=O)[C@H](CCCCNC(=O)COCCOCCNC(=O)COCCOCCNC(=O)CC[C@H](NC(=O)CCCCCCCCCCCCCCCCC(=O)O)C(=O)O)NC(=O)[C@H](CC(=O)O)NC(=O)[C@H](CO)NC(=O)[C@@H](NC(=O)[C@H](Cc1ccccc1)NC(=O)[C@@H](NC(=O)CNC(=O)[C@H](CCC(N)=O)NC(=O)[C@@H](CO)NC(=O)[C@@H](N)Cc1c[nH]cn1)[C@@H](C)O)[C@@H](C)O)C(=O)N[C@@H](CC(=O)O)C(=O)N[C@@H](C)C(=O)N[C@@H](CCCNC(=N)N)C(=O)N[C@@H](C)C(=O)N[C@@H](C)C(=O)N[C@@H](CCC(N)=O)C(=O)N[C@@H](CC(=O)O)C(=O)N[C@@H](Cc1ccccc1)C(=O)N[C@H](C(=O)N[C@@H](CCC(N)=O)C(=O)N[C@@H](Cc1c[nH]c2ccccc12)C(=O)N[C@@H](CC(C)C)C(=O)N[C@@H](CC(C)C)C(=O)N[C@@H](CC(=O)O)C(=O)N[C@H](C(N)=O)[C@@H](C)O)C(C)C [compound 6] (H-H[dS]QGTFTSDK([AEEA-AEEA-γGlu-C18 diacid])SKYLDARAAQDFVQWLLDT-NH2) | 1.7 | 1.24 | 1.37 |
| CC(C)C[C@H](NC(=O)[C@H](Cc1ccc(O)cc1)NC(=O)[C@H](CCCCN)NC(=O)[C@H](CO)NC(=O)[C@H](Cc1ccc(CNC(=O)COCCOCCNC(=O)COCCOCCNC(=O)CC[C@H](NC(=O)CCCCCCCCCCCCCCC(=O)O)C(=O)O)cc1)NC(=O)[C@H](CC(=O)O)NC(=O)[C@H](CO)NC(=O)[C@@H](NC(=O)[C@H](Cc1ccccc1)NC(=O)[C@@H](NC(=O)CNC(=O)[C@H](CCC(N)=O)NC(=O)C(C)(C)NC(=O)[C@@H](N)Cc1c[nH]cn1)[C@@H](C)O)[C@@H](C)O)C(=O)N[C@@H](CC(=O)O)C(=O)N[C@@H](CCC(=O)O)C(=O)N[C@@H](CCCNC(=N)N)C(=O)N[C@@H](C)C(=O)N[C@@H](C)C(=O)N[C@@H](CCC(N)=O)C(=O)N[C@@H](CC(=O)O)C(=O)N[C@@H](Cc1ccccc1)C(=O)N[C@H](C(=O)N[C@@H](CCC(N)=O)C(=O)N[C@@H](Cc1c[nH]c2ccccc12)C(=O)N[C@@H](CC(C)C)C(=O)N[C@@H](CC(C)C)C(=O)N[C@@H](CCCCN)C(=O)N[C@H](C(N)=O)[C@@H](C)O)C(C)C [compound 8] (H-H[Aib]QGTFTSD[Phe(4-CH2NH2)]([AEEA-AEEA-γGlu-C16 diacid])SKYLDERAAQDFVQWLLKT-NH2) | 0.42 | 15.26 | 0.03 |
| CC(C)C[C@H](NC(=O)[C@H](Cc1ccc(O)cc1)NC(=O)[C@H](CCCCN)NC(=O)[C@H](CO)NC(=O)[C@H](Cc1ccc(O)cc1)NC(=O)[C@H](CC(=O)O)NC(=O)[C@H](CO)NC(=O)[C@@H](NC(=O)[C@H](Cc1ccccc1)NC(=O)[C@@H](NC(=O)CNC(=O)[C@H](CCC(N)=O)NC(=O)C(C)(C)NC(=O)[C@@H](N)Cc1c[nH]cn1)[C@@H](C)O)[C@@H](C)O)C(=O)N[C@@H](CC(=O)O)C(=O)N[C@@H](C)C(=O)N[C@@H](CCCNC(=N)N)C(=O)N[C@@H](C)C(=O)N[C@@H](C)C(=O)N[C@@H](CCCCNC(=O)COCCOCCNC(=O)COCCOCCNC(=O)CC[C@H](NC(=O)CCCCCCCCCCCCCCC(=O)O)C(=O)O)C(=O)N[C@@H](CC(=O)O)C(=O)N[C@@H](Cc1ccccc1)C(=O)N[C@H](C(=O)N[C@@H](CCC(N)=O)C(=O)N[C@@H](Cc1c[nH]c2ccccc12)C(=O)N[C@@](C)(CC(C)C)C(=O)N[C@@H](CCS(C)(=O)=O)C(=O)N[C@@H](CC(=O)O)C(=O)N[C@H](C(N)=O)[C@@H](C)O)C(C)C [compound 40] (H-H[Aib]QGTFTSDYSKYLDARAAK([AEEA-AEEA-γGlu-C16 diacid])DFVQW[αMeL][Met(O2)]DT-NH2) | 0.65 | 10.39 | 0.06 |
| CC(C)C[C@H](NC(=O)[C@H](Cc1ccc(O)cc1)NC(=O)[C@H](CCCCN)NC(=O)[C@H](CO)NC(=O)[C@H](Cc1ccc(O)cc1)NC(=O)[C@H](CC(=O)O)NC(=O)[C@H](CO)NC(=O)[C@@H](NC(=O)[C@H](Cc1ccccc1)NC(=O)[C@@H](NC(=O)CNC(=O)[C@H](CCC(N)=O)NC(=O)C(C)(C)NC(=O)[C@@H](N)Cc1c[nH]cn1)[C@@H](C)O)[C@@H](C)O)C(=O)N[C@@H](CC(=O)O)C(=O)N[C@@H](CCC(=O)O)C(=O)N[C@@H](CCCNC(=N)N)C(=O)N[C@@H](C)C(=O)N[C@@H](C)C(=O)N[C@@H](Cc1ccc(CNC(=O)COCCOCCNC(=O)COCCOCCNC(=O)CC[C@H](NC(=O)CCCCCCCCCCCCCCC(=O)O)C(=O)O)cc1)C(=O)N[C@@H](CC(=O)O)C(=O)N[C@@H](Cc1ccccc1)C(=O)N[C@H](C(=O)N[C@@H](CCC(N)=O)C(=O)N[C@@H](Cc1c[nH]c2ccccc12)C(=O)N[C@@H](CC(C)C)C(=O)N[C@@H](CC(C)C)C(=O)N[C@@H](CCCCN)C(=O)N[C@H](C(N)=O)[C@@H](C)O)C(C)C [compound 26] (H-H[Aib]QGTFTSDYSKYLDERAA[Phe(4-CH2NH2)]([AEEA-AEEA-γGlu-C16 diacid])DFVQWLLKT-NH2) | 0.52 | 4.68 | 0.11 |
| CC(C)C[C@H](NC(=O)[C@H](Cc1ccc(O)cc1)NC(=O)[C@H](CCCCN)NC(=O)[C@H](CO)NC(=O)[C@H](Cc1ccc(O)cc1)NC(=O)[C@H](CC(=O)O)NC(=O)[C@H](CO)NC(=O)[C@@H](NC(=O)[C@H](Cc1ccccc1)NC(=O)[C@@H](NC(=O)CNC(=O)[C@H](CCC(N)=O)NC(=O)C(C)(C)NC(=O)[C@@H](N)Cc1c[nH]cn1)[C@@H](C)O)[C@@H](C)O)C(=O)N[C@@H](CC(=O)O)C(=O)N[C@@H](C)C(=O)N[C@@H](CCCNC(=N)N)C(=O)N[C@@H](C)C(=O)N[C@@H](C)C(=O)N[C@@H](CCCCNC(=O)COCCOCCNC(=O)COCCOCCNC(=O)CC[C@H](NC(=O)CCCCCCCCCCCCCCCCC(=O)O)C(=O)O)C(=O)N[C@@H](CC(=O)O)C(=O)N[C@@H](Cc1ccccc1)C(=O)N[C@H](C(=O)N[C@@H](CCC(N)=O)C(=O)N[C@@H](Cc1c[nH]c2ccccc12)C(=O)N[C@@H](CC(C)C)C(=O)N[C@@H](CCS(C)(=O)=O)C(=O)N[C@@](C)(CC(=O)O)C(=O)N[C@H](C(N)=O)[C@@H](C)O)C(C)C [compound 33] (H-H[Aib]QGTFTSDYSKYLDARAAK([AEEA-AEEA-γGlu-C18 diacid])DFVQWL[Met(O2)][αMeD]T-NH2) | 0.3 | 4.00 | 0.07 |

More lines, now with the values ahead:

| EC50 (human GCGR) [nM] | hGCGR/hGLP1R (hTone) (human GCGR) | EC50 (human GLP1R) [nM] | Structure (SMILES) |
| --- | --- | --- | --- |
| 0.04 | 1.91 | 0.02 | CC(C)C[C@H](NC(=O)[C@H](Cc1ccc(O)cc1)NC(=O)[C@H](CCCCN)NC(=O)[C@H](CO)NC(=O)[C@H](Cc1ccc(O)cc1)NC(=O)[C@H](CC(=O)O)NC(=O)[C@H](CO)NC(=O)[C@@H](NC(=O)[C@H](Cc1ccccc1)NC(=O)[C@@H](NC(=O)CNC(=O)[C@H](CCC(N)=O)NC(=O)C(C)(C)NC(=O)[C@@H](N)Cc1c[nH]cn1)[C@@H](C)O)[C@@H](C)O)C(=O)N[C@@H](CC(=O)O)C(=O)N[C@@H](C)C(=O)N[C@@H](CCCNC(=N)N)C(=O)N[C@@H](C)C(=O)N[C@@H](C)C(=O)N[C@@H](CCCCNC(=O)COCCOCCNC(=O)COCCOCCNC(=O)CC[C@H](NC(=O)CCCCCCCCCCCCC(=O)O)C(=O)O)C(=O)N[C@@H](CC(=O)O)C(=O)N[C@@H](Cc1ccccc1)C(=O)N[C@H](C(=O)N[C@@H](CCC(N)=O)C(=O)N[C@@H](Cc1c[nH]c2ccccc12)C(=O)N[C@@H](CC(C)C)C(=O)N[C@@H](CCS(C)(=O)=O)C(=O)N[C@@H](CC(=O)O)C(=O)N[C@H](C(N)=O)[C@@H](C)O)C(C)C [compound 49] (H-H[Aib]QGTFTSDYSKYLDARAAK([AEEA-AEEA-γGlu-C14 diacid])DFVQWL[Met(O2)]DT-NH2) |
| 0.13 | 3.21 | 0.04 | CC(C)C[C@H](NC(=O)[C@H](Cc1ccc(O)cc1)NC(=O)[C@H](CCCCN)NC(=O)[C@H](CO)NC(=O)[C@H](Cc1ccc(O)cc1)NC(=O)[C@H](CC(=O)O)NC(=O)[C@H](CO)NC(=O)[C@@H](NC(=O)[C@H](Cc1ccccc1)NC(=O)[C@@H](NC(=O)CNC(=O)[C@H](CCC(N)=O)NC(=O)C(C)(C)NC(=O)[C@@H](N)Cc1c[nH]cn1)[C@@H](C)O)[C@@H](C)O)C(=O)N[C@@H](CC(=O)O)C(=O)N[C@@H](C)C(=O)N[C@@H](CCCNC(=N)N)C(=O)N[C@@H](C)C(=O)N[C@@H](C)C(=O)N[C@@H](CCCCNC(=O)COCCOCCNC(=O)COCCOCCNC(=O)CC[C@H](NC(=O)CCCCCCCCCCCCCCC(=O)O)C(=O)O)C(=O)N[C@@](C)(CC(=O)O)C(=O)N[C@@H](Cc1ccccc1)C(=O)N[C@H](C(=O)N[C@@H](CCC(N)=O)C(=O)N[C@@H](Cc1c[nH]c2ccccc12)C(=O)N[C@@H](CC(C)C)C(=O)N[C@@H](CCS(C)(=O)=O)C(=O)N[C@@H](CC(=O)O)C(=O)N[C@H](C(N)=O)[C@@H](C)O)C(C)C [compound 42] (H-H[Aib]QGTFTSDYSKYLDARAAK([AEEA-AEEA-γGlu-C16 diacid])[αMeD]FVQWL[Met(O2)]DT-NH2) |
